From patent US5225543A, “Receptors method for purification of G protein-linked” (priority 1991, dated 1993)

Experiments:
[1] = target: T1, SRIF receptor (GH4 C1 membranes) (Rattus norvegicus, UniProt P30680); test: Competitive radioligand binding vs [^125 I]Tyr11-S14 on GH4 C1 membranes (FIG. 4); conditions: vs [^125 I]Tyr11-S14; 20 ug GH4 C1 membrane protein, 100,000 cpm (FIG. 4B)
T1 construct: GH4 C1 rat pituitary tumor cells; endogenous in cells; host or cells: GH4 C1 rat pituitary tumor cells (isolated membranes)
T1 sequence (P30680 whole entry): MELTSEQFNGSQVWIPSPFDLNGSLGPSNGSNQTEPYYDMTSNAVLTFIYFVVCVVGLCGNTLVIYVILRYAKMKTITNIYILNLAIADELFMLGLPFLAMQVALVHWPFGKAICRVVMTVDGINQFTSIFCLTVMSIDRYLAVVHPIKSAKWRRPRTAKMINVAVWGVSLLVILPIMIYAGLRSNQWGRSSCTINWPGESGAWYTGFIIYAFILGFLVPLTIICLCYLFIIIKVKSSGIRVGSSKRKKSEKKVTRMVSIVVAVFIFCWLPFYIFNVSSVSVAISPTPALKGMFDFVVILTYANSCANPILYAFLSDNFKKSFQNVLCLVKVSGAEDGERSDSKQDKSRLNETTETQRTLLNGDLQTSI
Protocol: Membrane Isolation--1-8 liter batches of cells at densities of 6-10×10^5 cells/ml are pelleted in conical bottom glass centrifuge bottles (600 or 800 ml; Bellco) at 1,000× g for 5 min. The supernatants are carefully poured off and the cells are resuspended in ice cold homogenization medium (1 mM Na-bicarbonate at pH 7.6, 1 mM EDTA and 1 mM EGTA) containing 0.7% (vol/vol) of the "100×4pase" protease inhibitor cocktail (see below). Twenty ml of homogenization medium is used for every liter of suspension culture. After 5 min. on ice, the hypotonically swollen cells are homogenized with 10 strokes of a tight fitting Dounce homogenizer (Kontes, type A pestle). The homogenate is centrifuged at 1,000× g for 10 min. and the supernatant is removed and kept on ice. The 1,000× g pellet containing residual intact cells, nuclei and DNA is washed by gently homogenizing with 4 strokes with a type B pestle in one half the original volume of homogenization medium and recentrifuging for 10 min. at 1,000× g. The final 1,000× g pellet consists mostly of DNA and is discarded. The 1,000× g supernatants are combined and centrifuged at 20,000× g for 30 min. The 20,000× g pellet is washed twice in 25 mM Tris (pH 7.4), with centrifugation for 25 min. at 20,000 2 g. Final membrane pellets are resuspended in 25 mM Tris buffer to concentrations of 4-10 mg membrane protein/ml. Then the 100× 4pase protease inhibitor cocktails are added to 1% of final volume and aliquots are frozen on dry ice. Membranes are stored at -90° C. until needed. Membrane protein is assayed with the Bradford dye binding assay (Bio-Rad).
Standard Binding Assays--Binding assays are done in a binding buffer containing 50 mM HEPES (pH 7.4), 0.5% BSA and 5 mM MgCl2. The standard assay for [^125 I]SRIF analog binding to GH4 CL membranes, done in 96 well microtiter plates (Dynatech Immulon II Removawell plates), is carried out as follows: 1. Radioligand is diluted in binding buffer+PMSF/Baci to the desired cpm per vol. of 50 μl and then 50 μl aliquots are added to the wells. For non-specific binding samples, 5 μl of 40 μM cold S14 is also added per well. […] Binding is initiated by adding 150 μl per well of membrane diluted to the desired concentration (10-30 ug membrane protein/well) in binding buffer+PMSF/Baci. Plates are then covered with Linbro mylar plate sealers (Flow Labs) and placed on a Dynatech Microshaker II and binding is allowed to proceed at room temperature for 1-2 hours. Binding is stopped by centrifuging the plate for 15 minutes at 2,000×g. The supernatants are dumped off and membrane pellets washed once by addition of 200 μl of ice cold binding buffer, brief shaking and recentrifugation. Finally the individual wells are placed in 12×75 mm tubes and counted in an LKB Gammamaster counter (78% efficiency). […]

[2] = target: T1, SRIF receptor (GH4 C1 membranes); test: Tracing of SRIF R:L complex with [^125 I]Bio-S28 during purification: membrane binding and solubilization (Table 4)
Protocol: 1. Binding of biotinyl-SRIF to GH4 C1 membranes. The binding step is carried out as described in Section 4 of "Receptor Binding Methods". Incubations are for 1 hour at room temperature. In the standard purification protocol, the binding incubations contain 10 nM […]/[^125 I]Bio-S28 is added as a tracer at levels of 5,000-100,000 cpm per mg of membrane protein. Control incubations contain 10 uM cold S14 to saturate the receptor with non-biotinylated ligand.
2. Solubilization of receptor:ligand complex. This is done as described ("Membrane Solubilization"), with 0.15% deoxycholate:lysolecithin in solubilization buffer containing 0.2 mM MgCl2, to obtain 100,000×g supernatants containing solubilized R:L complex.
(§1) A preparation of SRIF receptor is purified from 17 mg GH4 C1 pituitary cell membranes as described in "Methods: Receptor Purification". Some important features of this experiment are as follows: Two 17 mg samples of membranes are used. Both are incubated with 10^-8 M Bio-S28. However, one sample also receives 10^-5 M non-biotinyl S14 for 23 minutes before addition of any Bio-S28. This serves to block binding of Bio-S28 and creates a control to show non-specific binding of proteins to the streptavidin column. Also, each sample received 1.5×10^8 cpm of [^125 I]Bio-S28 as a tracer. This is added 2-3 minutes before the addition of cold Bio-S28. After a 1-hour binding step, the membranes are washed in binding buffer without BSA and solubilized in solubilization buffer containing 0.15% deoxycholate:lysolecithin and 0.2 mM MgCl2. Each 100,000×g supernatant (17 ml) is incubated with 0.6 ml of streptavidin-agarose for 4 hours at 4°-10° C. The SA-agarose is transferred to a 0.7 cm diameter column, washed and eluted with EDTA/EGTA/GTP-gamma-S as described ("Methods: Receptor Purification").
(§2) Radioligand is followed through the procedure to estimate solubilization of R:L complex and % initial binding of R:L complex to immobilized streptavidin.

[3] = target: T2, streptavidin (Streptomyces avidinii, UniProt P22629); test: Tracing of SRIF R:L complex with [^125 I]Bio-S28 during purification: binding to immobilized streptavidin (Table 4)
T2 construct: purchased Pierce Chemical Co
T2 sequence (P22629 25-183): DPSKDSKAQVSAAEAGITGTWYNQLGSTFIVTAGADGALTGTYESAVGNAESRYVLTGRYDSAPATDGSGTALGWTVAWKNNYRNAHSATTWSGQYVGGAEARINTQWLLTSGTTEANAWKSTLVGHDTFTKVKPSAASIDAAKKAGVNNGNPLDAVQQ
Protocol: 3. Adsorption of solubilized R:L complex to streptavidin. Immobilized streptavidin (streptavidin cross-linked to 6% beaded agarose, Pierce Chemical Co.; "SA-agarose") is washed in solubilization buffer and added to the solubilized membranes as 1/30 of the final volume. This mixture is incubated with constant stirring by end-over-end rotation for 4-5 hours at 4°-10° C. Then the mixture is applied to a column and the non-bound material is washed through. Binding of radioligand to SA-agarose is determined by comparing cpm in the 100,000×g supernatant with that in the column effluent after adsorption to SA-agarose. Finally, the column is washed with 12-15 column volumes of solubilization buffer+0.15% deoxycholate:lysolecithin+1/500 (vol/vol) 100×4pase.
as §1, §2

[4] = target: T1, SRIF receptor (GH4 C1 membranes); test: Purification method as receptor assay: binding of biotinyl-S28 to GH4 C1 membranes (FIG. 10); conditions: 10 nM B28 in binding step
Protocol: Soluble material is adsorbed to streptavidin-Sepharose for 4 hours and eluted with 100 uM GTP-gamma-S+100 uM EDTA+100 uM EGTA. Then the GTP-gamma-S eluates are incubated overnight with immobilized wheat germ agglutinin (to adsorb glycoproteins, including the receptor).
The WGA-agarose pellets are washed and then boiled in SDS polyacrylamide gel sample buffer (to melt the agarose and solubilize proteins). […] The proteins not bound to WGA are processed separately and also separated by SDS-PAGE (FIG. 10C).

[5] = 10^-8 M Bio-S28 + 10^-5 M S14 (NSB)
[6] = 10^-8 M Bio-S28, [^125 I]Bio-S28 tracer
[7] = 10^-8 M Bio-S28, [^125 I]Bio-S28 tracer, 4 hours

Biotinyl-NH-(Leu8, D-Trp22, Tyr25)SRIF28 [Bio-S28]
IC50 [1]: 0.3 nM | CPM initially bound to membranes (NSB) [2, 5]: 9,316 CPM | CPM solubilized by deoxycholate:lysolecithin (%) (NSB) [2, 5]: 73% | CPM solubilized by deoxycholate:lysolecithin (NSB) [2, 5]: 6,834 CPM | CPM initially bound to membranes [2, 6]: 59,132 CPM | CPM solubilized by deoxycholate:lysolecithin [2, 6]: 54,094 CPM | CPM solubilized by deoxycholate:lysolecithin (%) [2, 6]: 91% | Solubilized CPM non-bound to streptavidin (%) (NSB) [3, 5]: 15% | Solubilized CPM non-bound to streptavidin (NSB) [3, 5]: 1,054 CPM | Solubilized CPM non-bound to streptavidin [3, 7]: 14,960 CPM | Solubilized CPM non-bound to streptavidin (%) [3, 7]: 28% | total specific binding at or near saturation [4]: 1.8 pmol
